Drawing on PubChem BioAssay AID1418 (Emory University Molecular Libraries Screening Center, 2008), this text covers IC50 for 85 compounds.

Activity calls are given as the source filed them. The rule behind the calls is not given here.

This test deals with Induced myeloid leukemia cell differentiation protein Mcl-1 (Homo sapiens) (UniProt Q07820). Briefly: blockers of Bid binding to Mcl-1 – biochemical, TR-FRET, dose response (AID 1418). To be noted: Mcl-1/Bid peptide binding, TR-FRET (europium/Dy647), 2 hr.
Induced myeloid leukemia cell differentiation protein Mcl-1 (Homo sapiens), sequence (Q07820 whole entry, looked up): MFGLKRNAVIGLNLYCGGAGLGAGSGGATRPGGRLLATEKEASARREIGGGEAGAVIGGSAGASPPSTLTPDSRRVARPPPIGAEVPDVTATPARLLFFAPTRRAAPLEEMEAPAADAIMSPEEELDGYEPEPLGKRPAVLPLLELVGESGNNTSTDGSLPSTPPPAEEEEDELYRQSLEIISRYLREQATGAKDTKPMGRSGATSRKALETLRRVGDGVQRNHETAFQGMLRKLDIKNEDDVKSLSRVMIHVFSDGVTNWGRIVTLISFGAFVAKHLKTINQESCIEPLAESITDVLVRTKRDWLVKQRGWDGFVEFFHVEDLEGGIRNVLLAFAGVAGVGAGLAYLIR

Take `Cc1cccc2c3nc4ccccc4nc3n(CCCN3C(=O)c4ccccc4C3=O)c12`: the IC50 is > 54 µM (inactive).
Next, `C/C(=N\Nc1cccc(C(=O)O)c1)c1ccc2c(c1)Nc1ccccc1S2`: 0.76 µM; `Cc1c(N=Nc2c(-c3ccc([N+](=O)[O-])cc3)[nH]n(C(N)=S)c2=O)cccc1[N+](=O)[O-]`: 2.92 µM.
For `Cc1c([N+](=O)[O-])c(C(=O)Nc2ccc3c(c2)OCCO3)nn1C`, the IC50 is > 54 µM (inactive).
On to `O=C(N/N=C/c1ccc(-c2ccc(Cl)c(C(=O)O)c2)o1)c1cc2c(ccc3ccccc32)o1`, for which the IC50 was 8.18 µM.
`CC(=O)Oc1ccc(C(c2ccc(OC(C)=O)cc2)c2ccccn2)cc1`: the IC50 was > 54 µM (inactive).
For the compound `CN1/C(=C\C=C2C(=O)NC(=S)NC2=O)C(C)(C)c2ccccc21`, the IC50 is > 54 µM (inactive).
Next, `O=C(Nn1cnnc1)c1ccccc1CCc1ccccc1`: > 54 µM (inactive); `O=C(N/N=C/C=C/c1ccc([N+](=O)[O-])cc1)c1cccs1`: “inactive”.
Turning to `O=C1/C(=C/C=C/c2ccco2)SC(=S)N1NS(=O)(=O)c1ccccc1`, the IC50 is 2.31 µM.
Regarding `S=C(NNc1ccnc2cc(Cl)ccc12)Nc1ccc(Cl)cc1Cl`, the IC50 is 2.22 µM.
As to `C=CCNCCCOc1ccc(Cl)cc1Br`, the IC50 is > 54 µM (inactive).
Regarding `CCOC(=O)C1CCN(C(=O)c2cc(S(=O)(=O)N3CCOCC3)c(Cl)cc2Cl)CC1`, the IC50 is > 54 µM (inactive).
Consider `Cc1ccc(-c2cn(-c3ccccc3)c(SCC(N)=O)n2)cc1C`, for which the IC50 was > 54 µM (inactive).
Next, `CC(Sc1nnc2c(n1)C1CCC2(C)C1(C)C)C(=O)Nc1ccccc1` (stereo not given): > 54 µM (inactive); `O=C(O)c1cnn2c(C(F)(F)F)cc(-c3ccco3)nc12`: > 54 µM (inactive).
In the case of `Cc1ccccc1NCC(=O)N/N=C/C(Br)=C/c1ccccc1`, the IC50 is > 54 µM (inactive).
Turning to `COc1ccc(C(=O)Nc2cccc(-c3cc4ccccc4oc3=O)c2)cc1[N+](=O)[O-]`, the IC50 was 1.24 µM.
With `COc1ccc(NC(=O)CN2C(=O)/C(=C3\SC(=S)N(C4CCS(=O)(=O)C4)C3=O)c3ccccc32)cc1` (stereo not given), the IC50 was 0.72 µM.
With `N/C(CS(=O)(=O)c1ccc(F)cc1)=N\O`, the IC50 is > 54 µM (inactive).
Next, `COc1ccc(NS(=O)(=O)c2cccc(NC(=O)CCC(=O)c3ccc(Cl)cc3)c2)cc1`: > 54 µM (inactive); `CCOC(=O)c1ccccc1NC(=O)c1nc2nccc(C)n2n1`: > 54 µM (inactive); `CC1CCCC(C)N1CCNC(=O)C1CCN(S(=O)(=O)N2CCCCC2)CC1` (stereo not given): > 54 µM (inactive).
On to `O=C(O)c1ccccc1-c1ccc(/C=c2\sc3nc4cc(Br)cnc4n3c2=O)o1`, for which the IC50 was 18.5 µM.
Regarding `CC(C(=O)O)n1nc2ccccc2n1` (stereo not given), the IC50 is > 54 µM (inactive).
Next, `C=CCn1c(SCc2ccc(C#N)cc2)nnc1-c1cccc(OC)c1`: > 54 µM (inactive).
For the compound `COc1ccc(C2SCC(=O)N2CCCN(C)C)cc1` (stereo not given), the IC50 was > 54 µM (inactive).
For `Cc1nc(COC(=O)c2cc(O)c3ccccc3c2O)cs1`, the IC50 is 0.9 µM.
With `CN1C(=O)CN=C(c2ccc(Cl)cc2)c2cc(Cl)ccc21`, the IC50 is > 54 µM (inactive).
Next, `O=C(O)c1cccc(N/N=C/C2=C(Cl)c3cc(Cl)ccc3SC2)c1`: 8.44 µM; `c1ccc(CSc2nnc(-c3ccco3)c(-c3ccco3)n2)cc1`: 10.2 µM.
Take `Cc1ccc(Cn2nc(C)c(NC(=O)CSc3nc4c(c(C(F)(F)F)n3)CCc3ccccc3-4)c2C)cc1`: the IC50 was 1.91 µM.
Next, `Cc1nn(Cc2ccccc2)c(C)c1NC(=O)CSc1nc(-c2ccccc2)nc2c1cnn2-c1ccccc1`: 0.47 µM.
With `Cc1nnc(Sc2cc(C(=O)NC3CC3)c3ccccc3n2)s1`, the IC50 is > 54 µM (inactive).
`C/C(=N/NC(=O)c1ccccn1)c1ccc(O)cc1`: the IC50 is > 54 µM (inactive).
`COc1ccc(CCNC(=O)c2ccc(=O)[nH]n2)cc1OC`: the IC50 was > 54 µM (inactive).
Turning to `CCOc1ccc(-c2nnc(-c3ccccc3)n2-c2ccccc2)cc1`, the IC50 entry is “inactive”.
With `O=c1c2cnn(-c3ccccc3)c2nc(-c2cccs2)n1-c1cccc(Cl)c1`, the IC50 was > 54 µM (inactive).
As for `NC(=S)N/N=C/c1coc2c(ccc3ccccc32)c1=O`, the IC50 is 4.99 µM.
With `CC1=C(C#N)C(=O)NC(=O)/C1=C\c1ccc(-c2cc(C)c(C)cc2[N+](=O)[O-])o1`, the IC50 is 1.16 µM.
As to `O=C(O)CCc1nn2c3ccccc3n(CC(=O)c3ccccc3)c2nc1=O`, the IC50 was > 54 µM (inactive).
As to `C#CCn1cc(/C=N/NC(=O)COc2cccc3cccnc23)c2ccccc21`, the IC50 was 0.86 µM.
Next, `Cc1cccc(C(=O)N2CCc3cc(-c4nc(NC(=O)Cn5nnc6ccccc6c5=O)sc4C)ccc32)c1`: > 54 µM (inactive); `COCC(=O)Nc1ncc(S(=O)(=O)c2ccc([N+](=O)[O-])cc2)s1`: > 54 µM (inactive).
Next, `Cc1csc2ncnc(N3CCN(C(=S)Nc4ccc(F)cc4F)CC3)c12`: > 54 µM (inactive); `Clc1ccc(OCCCNCc2ccccc2)c(Br)c1`: > 54 µM (inactive); `O=C1c2cccc3cc([N+](=O)[O-])cc(c23)C(=O)N1/N=C/c1ccc(O)cc1O`: 0.82 µM.
Next, `CN(C)c1ccc(-c2nnc(-c3ccc(S(=O)(=O)C(F)F)cc3)o2)cc1`: 2.48 µM.
In the case of `CCS(=O)(=O)NCc1ccc2c(c1)cc(C)n2C`, the IC50 is > 54 µM (inactive).
As for `COc1cccc(CN(C(=O)/C=C/c2ccc(Cl)cc2)C2CCS(=O)(=O)C2)c1` (stereo not given), the IC50 is > 54 µM (inactive).
Regarding `Cc1cc(C)nc(N(C#N)S(=O)(=O)c2ccccc2Cl)n1`, the IC50 is > 54 µM (inactive).
Turning to `NC(=S)n1[nH]c(-c2ccc([N+](=O)[O-])cc2)c(N=Nc2ccc(Cl)cc2)c1=O`, the IC50 is 0.56 µM.
Turning to `CCOC(=O)c1c(NC(=O)N/N=C/c2ccc(O)c(OC)c2)sc(C(C)=O)c1C`, the IC50 was 0.53 µM.
Next, `O=c1c(CN2CCN(Cc3ccccc3)CC2)coc2ccc(Cl)cc12`: > 54 µM (inactive).
As for `CCOC(=O)c1sc2nc3c(SCCC(=O)O)cc(C(=O)c4cc(OC)ccc4O)cn3c(=O)c2c1C`, the IC50 is 1.66 µM.
With `O=C(Nc1cccc(-c2csc(-c3ccccc3)n2)c1)c1cccs1`, the IC50 is > 54 µM (inactive).
As to `COc1cc(OC)c2c(O)c3c(c(-c4c5c(c(O)c6c(OC)cc(OC)cc46)CO[C@@H](C)[C@H]5O)c2c1)[C@H](O)[C@H](C)OC3`, the IC50 is 14.4 µM.
Next, `COc1cccc(/C=N/NC(=O)c2cc3cc([N+](=O)[O-])ccc3s2)c1O`: 1.58 µM; `CN(NC(=O)COc1ccccc1)c1ccccc1`: > 54 µM (inactive).
`CSc1nc(N(C)CCO)c2sc3nc(-c4ccco4)c4c(c3c2n1)CCC4`: the IC50 is > 54 µM (inactive).
As for `CCOc1cc(C=C2C(=O)c3ccccc3C2=O)ccc1OCC(=O)Nc1ccc(C)cc1`, the concentration for half-maximal inhibition (IC50) was 1.2 µM.
Next, `O=C(O)[C@@H](c1ccccc1)N1Cc2ccccc2C1=O`: 0.54 µM; `CSC1=N/C(=C\c2ccccc2F)C(=O)S1`: > 54 µM (inactive); `CC(Oc1ccc(Cl)cc1Cl)C(=O)N(C)c1ccccc1` (stereo not given): > 54 µM (inactive).
In the case of `CCOC(=O)c1nc(C)sc1-c1ccnn1S(=O)(=O)c1ccc(C)cc1`, the IC50 was > 54 µM (inactive).
Regarding `Cc1cccc(CN2CCc3c(OCC(=O)NCc4ccco4)cccc3C2=O)c1`, the IC50 is > 54 µM (inactive).
For the compound `CC(=O)Oc1ccc(Cl)cc1/C=C/c1ccc2ccccc2n1`, the IC50 was > 54 µM (inactive).
Consider `O=C(O)/C=C\C(=O)N1CCc2ccccc21`, for which the IC50 is > 54 µM (inactive).
On to `COc1cccc(Nc2nc(NCC3CCCO3)c3ccccc3n2)c1` (stereo not given), for which the IC50 was > 54 µM (inactive).
In the case of `CCOc1ccc(-n2c(-c3ccoc3)nc3ccccc3c2=O)cc1`, the IC50 was > 54 µM (inactive).
Next, `Cc1ccsc1C(=O)OCC(=O)N1CCOCC1`: > 54 µM (inactive); `CCc1ccc(CCC(=O)Nc2ccc(C)cc2C)o1`: > 54 µM (inactive).
On to `CC(=O)c1cccc(NC(=O)C2CCN(C(=O)c3ccc([N+](=O)[O-])cc3)CC2)c1`, for which the IC50 is > 54 µM (inactive).
Consider `Cc1csc(CCc2nc(C)cs2)n1`, for which the IC50 is > 54 µM (inactive).
Next, `COc1ccc(CN2C(=O)c3cccnc3C2O)cc1` (stereo not given): 0.71 µM; `Cc1cccc(N2CCN(C(=S)Nc3ccc4nc(N5CCN(C)CC5)cc(C)c4c3)CC2)c1C`: 2.95 µM.
Regarding `O=S(=O)(c1cccc(-c2nnc(SC(F)F)n2-c2ccccc2)c1)N1CCCCC1`, the IC50 was > 54 µM (inactive).
With `COc1cc(-c2nc(-c3ccc(NC(=O)c4ccc(Br)o4)cc3)no2)cc(OC)c1OC`, the IC50 is 1.81 µM.
Turning to `O=C(O)c1ccccc1NS(=O)(=O)c1ccc(NNC(=S)Nc2ccc(OC(F)F)cc2)c([N+](=O)[O-])c1`, the IC50 was 0.62 µM.
In the case of `CCN(CCNC(=O)CN1CCN(Cc2ccc(Cl)cc2)C1=O)c1ccccc1`, the IC50 is > 54 µM (inactive).
In the case of `COC(CNC(=O)c1ccc2nc(-c3cccs3)c(-c3cccs3)nc2c1)OC`, the IC50 was > 54 µM (inactive).
As to `C#CCOCCOCCOCCNc1nc(N2CCN(C(=O)[C@H](CCCCN)n3cc(C(N)[C@H](C)CC)nn3)CC2)nc(N2CCN(C(=O)[C@H](CCC(=O)O)n3cc(C(N)[C@H](C)CC)nn3)CC2)n1` (stereo not given in full), the IC50 is 1.93 µM.
`Cc1ccc(-n2c(=O)c3cc4c(=O)n(-c5ccc(C)c(C)c5)c(=O)c4c(C(=O)c4ccc(C(=O)O)cc4)c3c2=O)cc1C`: the IC50 is 6.91 µM.
Next, `Cc1ccc2nc(NC(=O)c3ccc(-c4nc5ccccc5s4)s3)sc2c1`: 1.12 µM; `COc1ccc2nc(NC(=O)c3cccc(-c4cc5ccccc5oc4=O)c3)sc2c1`: 0.89 µM.
